Laboratory results as given in patent US6992070B2 (priority 2000, dated 2006).

Test system: ex vivo perfused rabbit heart (ventricular myocytes), Adgal adenovirus gene transfer
Type: cell-based

Row | Structure (SMILES) | infection efficiency | pretreatment (exposure) time required for the enhancement of infection [min] | percentage of infected cells | percentage of infected cells in the absence of VEGF
1 | Nc1nc2c(nc(Br)n2[C@@H]2O[C@@H]3COP(=O)(O)O[C@H]3[C@H]2O)c(=O)[nH]1 [8-Br-cGMP] | replicates the increase in infection efficiency | 2 | – | –
2 | CCCc1nn(C)c2c(=O)[nH]c(-c3cc(S(=O)(=O)N4CCN(C)CC4)ccc3OCC)nc12 [Sildenafil, 5-[2-ethoxy-5-(4-methylpiperazin-1-ylsulphonyl)phenyl]-1-methyl-3-n-propyl-1,6-dihydro-7H-pyrazolo[4,3d]pyrimidin-7-one] | – | – | increased the percentage of infected cells | No change
3 | O=[N+]([O-])OCC(CO[N+](=O)[O-])O[N+](=O)[O-] [nitroglycerin] | replicates the increase in infection efficiency | 2 | – | –
4 | NCCc1c[nH]c2ccc(O)cc12 [serotonin] | – | 15 | – | –
5 | CCCOc1ccccc1-c1nc2nn[nH]c2c(=O)[nH]1 [zaprinast] | – | – | increased the percentage of infected cells | No change
